Measured values published in patent publication US20240424477A1, “SYSTEM AND DEVICES FOR REMOVAL OF CONTAMINATES” (priority 2021, published 2024).

What was measured:
[1] = conventional drinking water treatment, literature; cited from earlier work
[2] = system: MO protein; assay: 19F NMR protein-ligand binding (peak height ratio B); set-up: species or system Moringa oleifera; settings: PFAS 50 mg/L
Protocol: ^19F NMR. ^19F NMR measurements were taken on a Bruker AVANCE III 500 NMR. 3,000 scans were run for each sample with a 1 second relaxation delay. TFMAA was added to each sample as an internal standard. 90% H2O and 10% D20 were used for instrument lock and calibration. PFAS concentrations remained constant at 50 mg/L. […] of sample was used for each run. ^19F NMR spectra were obtained with a spectral width 113636.36 Hz and spectral frequency 470.57 MHz.
Spectrum were analyzed via MestreNova software for phase correction and baseline correction. Peak picking was completed automatically by the software. […] Intensities were normalized by TFMAA peak area at approximately −64.9 ppm. NMR data is included in the Supporting Information. The NMR peak height ratio, B, can be used to determine the relative ranking of binding affinities between protein-ligand complexes. B was calculated using Equation (1)
Where lb is the sum of ligand NMR heights in the presence of protein and lh is the sum of free ligand NMR heights.
^19F NMR. NMR can be used to study protein-ligand interactions by examining changes in peak height, peak width, and chemical shifts. A decrease in peak height indicates the formation of a protein-ligand complex. Previous literature has used ^19F NMR to look at PFAS binding to albumin proteins. In this work, PFAS (ligand) concentrations remain constant while MO protein concentrations were varied.

[3] = when protein concentrations increase

| Molecule | removal of PFOA and PFOS by coagulation [1] | binding affinity to MO protein (NMR peak height ratio, B) ([2]; lower protein concentrations) | binding affinity to MO protein (NMR peak height ratio, B) [2, 3] |
| --- | --- | --- | --- |
| alum | about 20% | – | – |
| [Cl][Fe]([Cl])[Cl] [FeCl3, ferric chloride] | about 20% | – | – |
| O=S(=O)(O)C(F)(F)C(F)(F)C(F)(F)C(F)(F)C(F)(F)C(F)(F)C(F)(F)C(F)(F)F [PFOS, perfluorooctanesulfonic acid] | – | stronger affinity than MO-PFOA | similar |
| O=C(O)C(F)(F)C(F)(F)C(F)(F)C(F)(F)C(F)(F)C(F)(F)C(F)(F)F [PFOA, perfluorooctanoic acid] | – | – | similar |
